From patent EP4775209A1 (Ascentawits Pharmaceuticals, Ltd., priority 2023, dated 2025)

Key:
[1] = Phase I clinical trial of AST-3424 in China: blood pharmacokinetics compared with US data; type: in vivo, human; details: human, Chinese and American patients, printed as 'almost lower than', read-out: concentrations after 8 hours
[2] = Phase I solid tumor clinical trial of AST-3424 in China (CTR20191399): safety and tolerability; type: in vivo, human; details: Day 1 and Day 8 of every 21-day treatment cycle; Chinese subjects
Protocol: The treatment cycle was 21 days, with administration on Day 1 and Day 8. Dose escalation was conducted across five dose levels: 1.0, 2.0, 4.0, 6.0, and 8.0 mg/m^2. After discussion by the Safety Review Committee (SRC), the MTD and RP2D when administered on Day 1 and Day 8 of every 21-day treatment cycle were confirmed as 6.0 mg/m^2 (a total dose of 12 mg/m^2 per cycle). The safety and tolerability were slightly better in the U.S. subjects than in the Chinese subjects (with a marginally higher MTD/RP2D under the same dosing regimen than those in the Chinese population). The safety profile trends were consistent (most adverse events were mild in severity; the most common adverse events included anemia, decreased platelet count, fatigue, and vomiting). Other safety, PK and efficacy results were generally similar to those in the clinical trials of OBI-3424.

[3] = test system: human liver cancer (HepG2-GFP) orthotopic CDX model; assay: Human liver cancer orthotopic CDX efficacy model (QW×2 regimen); type: in vivo, nude mice; details: 1.25, 2.5, 5 mg/kg, QW×2, drug free one week, QW×2, I.V.; significant dose-effect relationship
From the text: The data from this experiment correspond to the data of the HepG2 model in Example 3-1 of the aforementioned Patent Application 2 (see Table 5 and Figures 4A, 4B of this application).

[4] = test system: HuPrime® pancreatic cancer PA1280 subcutaneous xenograft model; assay: Pancreatic cancer PA1280 subcutaneous xenograft efficacy model; type: in vivo, BALB/c nude mice
Protocol: The drug was administered via tail vein injection once weekly for a total of three weeks, followed by one week of observation.

[5] = test system: HuPrime® pancreatic cancer PA1170 subcutaneous xenograft model; assay: Pancreatic cancer PA1170 subcutaneous xenograft efficacy model; type: in vivo, BALB/c nude mice; details: for TGI (%): Day 30, P<0.05; for mean tumor volume: Day 30 after first administration
[6] = GLP repeated-administration toxicity study (QD×5/21 Days) in monkeys; type: in vivo, cynomolgus monkeys; details: 5 cycles
Protocol: In a GLP repeated-administration toxicity study in cynomolgus monkeys, AS-3424 was intravenously infused to cynomolgus monkeys at doses of 0, 0.1, 0.2, or 0.4/0.3 mg/kg over 30 minutes on Days 1-5, Days 22-26, Days 43-47, Days 64-68, and Days 85-89.
During the trials, a decrease in #EOS (absolute eosinophil count), %EOS (% eosinophils), #RET (absolute reticulocyte count), and %RETIC (% reticulocytes) was primarily observed in the ≥0.1 mg/kg dose groups; a decrease in #NEUT, #LYMPH (lymphocyte absolute count), and %LYMPH (% lymphocyte) was also seen in the ≥ 0.2 mg/kg dose groups; and a decrease in WBC (white blood cell), HGB (hemoglobin), and HCT (hematocrit) was also seen in the 0.4/0.3 mg/kg dose group. Among them, the reduction in eosinophils was correlated with the reduction in the percentage of eosinophils in the bone marrow smears at the end of the administration period, and the decrease in lymphocytes was correlated with the reduction of lymphocytes in the thymic cortex under microscopic examination, which were considered to be secondary stress responses. All the above hematological changes were recoverable during the recovery period.

[7] = GLP repeated-administration toxicity study (D1+D8/21 Days) in rats; type: in vivo, Sprague-Dawley (SD) rats; details: intravenous bolus on Days 1, 8, 22, 29
Protocol: Rats developed test article-related, dose-dependent lesions at the injection sites and the distal ends of the tails. At the 10 mg/kg dose, there were mild and reversible changes in hematology and serum biochemistry parameters.

[8] = Toxicokinetics (D1+D8/21 Days) in monkeys; type: in vivo, cynomolgus monkeys; details: both sexes, cynomolgus monkey, in vivo, iv
[9] = GLP repeated-administration toxicity study (D1+D8/21 Days) in monkeys; type: in vivo, cynomolgus monkeys
Protocol: In a GLP repeated-administration toxicity study in cynomolgus monkeys, AS-3424 was intravenously infused to cynomolgus monkeys at doses of 0, 0.1, 0.3, and 0.6 mg/kg over 30 minutes on Days 1, 8, 22, and 29. […] Ultimately, the highest non-severe toxic dose (HNSTD) in monkeys was determined to be 0.6 mg/kg.

[10] = test system: HuPrime® pancreatic cancer PA9451 subcutaneous xenograft model; assay: Pancreatic cancer PA9451 subcutaneous xenograft efficacy model; type: in vivo, BALB/c nude mice; details: for TGI (%): Day 36, P<0.001; for mean tumor volume: Day 36 after first administration
solid tumors = details: 21 patients of 39; cited from earlier work
[11] = test system: HuPrime® pancreatic cancer PA2637 subcutaneous xenograft model
From the text: For the experimental procedures and relevant evaluation indicators of the aforementioned solid tumor animal efficacy models, please refer to Examples 7, 8, and 9 in Patent Application 1, namely PCT/US2016/062114, with Publication No. WO2017/087428 (corresponding to Chinese Application CN201680044608.1, with Publication No. CN108290911B), Examples 3 and 4 in Patent Application 2, namely PCT/CN2021/078115, with Publication No. WO2022178821, and Research Literature 1. The aforementioned non-clinical animal efficacy models (PDX) mentioned in the present application are all similar to those in the aforementioned literatures, and the specific operation procedures thereof are not described herein again.
PA2637 is a HuPrime® xenograft model established from a pancreatic cancer tumor of a patient.
Efficacy was evaluated based on the relative tumor growth inhibition rate (TGI, %), and safety was evaluated based on animal body weight changes and mortality.

[12] = 1 mg/kg QD×5, 16 days off, QD×5
[13] = 2 mg/kg once weekly for 2 weeks

C[C@H](OP(=O)(N1CC1)N1CC1)c1ccc([N+](=O)[O-])c(Oc2cccc(C(=O)N(C)C)c2)c1 [AST-3424]
concentration at 8 h [1]: < 1 ng/mL
MTD [2]: 6.0 mg/m^2
RP2D [2]: 6.0 mg/m^2
effect on the orthotopic model of human liver cancer in mice [3]: strong inhibitory effect
tolerability (body weight changes and mortality) ([4]; 2.5 mg/kg once weekly for three weeks, no animal deaths, no apparent drug toxicity): well tolerated
mean tumor volume ([4]; 2.5 mg/kg tail vein once weekly for three weeks, Day 27, vehicle 475.07): 190.34 mm^3
TGI (%) [5, 12]: 97.60%
mean tumor volume ([5]; 1 mg/kg QD×5, 16 days off, QD×5, vehicle 1182.66): 29.50 mm^3
TGI (%) [5, 13]: 94.83%
mean tumor volume [5, 13]: 64.50 mm^3
tolerability (body weight changes and mortality) ([5]; AST-3424 groups 1 mg/kg QD×5 and 2 mg/kg QW, no animal deaths, no apparent drug toxicity): well tolerated
toxic target organs ([6]; 0.1, 0.2, 0.4/0.3 mg/kg QD×5 per 21 days): duodenum, jejunum, colon, and cecum
HNSTD ([6]; 30-minute i.v. infusion QD×5 per 21 days): 0.3 mg/kg
NOAEL ([7]; Sprague-Dawley, rat, in vivo, read-out: no-observed-adverse-effect level (NOAEL)): 3 mg/kg
dose at which 10% of animals showed severe toxic reactions (STD10) [7]: 30 mg/kg
Vd [8]: 0.223 to 0.676 L/kg
clearance [8]: 11.8 to 18.2 mL/min/kg
most prominent toxic reaction ([9]; 0.1, 0.3, 0.6 mg/kg on Days 1, 8, 22, 29, intestinal necrosis/hyperplasia in pathology): diarrhea and vomiting
highest non-severe toxic dose (HNSTD) ([9]; 30-minute i.v. infusion on Days 1, 8, 22, 29): 0.6 mg/kg
TGI (%) ([10]; 0.5 mg/kg QD×5, 16 days off, QD×5): 91.77%
mean tumor volume ([10]; 0.5 mg/kg QD×5, 16 days off, QD×5, vehicle 661.61): 54.83 mm^3
TGI (%) [10, 12]: 92.99%
mean tumor volume [10, 12]: 46.05 mm^3
TGI (%) [10, 13]: 88.53%
mean tumor volume [10, 13]: 76.78 mm^3
tolerability (body weight changes and mortality) ([10]; AST-3424 groups 0.5, 1 mg/kg QD×5 and 2 mg/kg QW, no animal deaths, no apparent drug toxicity): well tolerated
confirmed best response stable disease (solid tumors): 54%
tumor clearance ([11]; 1 mg/kg QD×5, 2 cycles, 6 mice per group): the tumor in one mouse was cleared
tolerability (body weight changes and mortality) ([11]; 1 mg/kg QD×5, 2 cycles, no animal deaths, no apparent drug toxicity): well tolerated
TGI (%) ([11]; Day 36 after first administration, AST-3424 1 mg/kg QD×5, 16 days off, QD×5 (P < 0.001), ifosfamide 60 mg/kg QD×5/week for 2 weeks (no statistical difference)): 80.78%
mean tumor volume ([11]; Day 36 after first administration, AST-3424 1 mg/kg QD×5, 16 days off, QD×5, ifosfamide 60 mg/kg QD×5/week for 2 weeks, vehicle 977.46): 186.08 mm^3
